{"source": "patent US20260248767A1", "about": "“METHODS FOR INDUCING FERROPTOSIS IN CANCER” (Board of Regents, The University of Texas System, priority 2023, published 2026)", "key": {"[1]": {"tested_on": "HT-1080, 786-O, U87, T98G, RCC4, H1299, A549, Hela and Hs578T", "test": "Cell death assay (PI flow cytometry), panel of cancer cell lines", "assay_type": "cell-based, human", "protocol": "All cell lines used in this study were free of mycoplasma contamination (per testing done by the vendor). All the cells were cultured in a 37° C. incubator in a 5% CO2 atmosphere. H1299 cells were cultured in RPMI-1640 medium supplemented with 10% fetal bovine serum and 10,000 U/mL penicillin-streptomycin. HT-1080, 786-O, U87, T98G, RCC4, A549, Hela and Hs578T cells were cultured in Dulbecco modified Eagle medium (DMEM) supplemented with 10% fetal bovine serum and 10,000 U/mL of penicillin-streptomycin.\nAfter treatment, cells were trypsinized and collected. […] All experiments were performed in triplicates."}, "HT-1080 cells [2]": {"tested_on": "HT-1080 cells", "test": "Cell viability assay (CCK-8)", "assay_type": "cell-based, human", "protocol": "Cell viability was measured using a Cell Counting Kit-8 (CCK-8, Dojindo) as previously described (Koppula, P., et al. J Biol Chem 292, 14240-14249, doi: 10.1074/jbc.M117.798405 (2017); Liu, X. et al. Nat Cell Biol 18, 431-442, doi: 10.1038/ncb3328 (2016)). In brief, cells were seeded onto 96-well plates at a density of 1×10^4 per well. The next day, cells were treated with indicated compound for 16-20 h. Subsequently, cells were changed to new 100 μl medium containing 10 μl CCK-8 reagent for 1 h at 37° C., 5% CO2 in incubator. The absorbance at 450 nm was determined using a FLUOstar Omega microplate reader (BMG Labtech)."}, "HT-1080 cells [3]": {"tested_on": "HT-1080 cells", "test": "Lipid peroxidation measurement (C11-BODIPY 581/591, flow cytometry)", "assay_type": "cell-based, human", "settings": "combined with RSL3, compared to RSL3 alone", "protocol": "Cells were seeded on 12-well plates and incubated overnight. After treating with compounds for indicated time, cells were incubated in media containing 5 μM C11-BODIPY 581/591 (Invitrogen) for 30 min at 37° C. Then cells were trypsinized and collected. […] All experiments were performed in triplicates."}, "NADP+/NADPH": {"tested_on": "NADP+/NADPH", "test": "NADP+ and NADPH measurement", "assay_type": "cell-based", "settings": "treated vs untreated cells"}, "one-carbon metabolism": {"tested_on": "one-carbon metabolism", "test": "dTTP levels and labelling (serine through one-carbon metabolism)", "assay_type": "cell-based", "settings": "sulfite vs vehicle treated samples, over time", "protocol": "The total dTTP, M+1dTTP and M+2 dTT were measured in the presence or absence of sulfite.\nThe complete platform consists of an Accela 1250 HPLC system, Accela Open Autosampler, MayLab Mistraswitch column oven and Exactive orbitrap mass spectrometer, controlled by the Xcalibur 3.0.63 software package. Chromatography was performed with a Phenomenex Synergi Hydro-RP column (100×2 mm, 2.5 μm particle size). Solvent A is 10 mM tributylamine and 15 mm acetic acid in water; Solvent B is methanol. The gradient is: 0 min, 0% B; 2.5 min, 0% B; 5 min, 20% B; 7.5 min, 20% B; 13 min, 55% B; 15.5 min, 95% B; 18.5 min, 95% B; 19 min, 0% B; 25 min, 0% B. The injection volume was 10 μl. The column temperature was set to 40° C., and the flow rate was 200 μl/min. The Exactive was operated in negative ionization mode with an electrospray ionization interface. The instrument parameters are as follows: sheath gas flow rate 30 (arbitrary units), aux gas flow rate 10 (arbitrary units), sweep gas flow rate 3 (arbitrary units), spray voltage 3 kV, capillary temperature 325° C., capillary voltage −25 V, tube lens voltage −50 V. The scan range was set to 80-1,000 m/z, with a maximum inject time of 250 ms, resolution of 100,000 at 1 Hz, and AGC (automatic gain control) target 1×10^6. The data were analyzed using the MAVEN software suite with signal intensity determined as the Peak Area (Top). For metabolic labelling experiments, the data were corrected to account for the natural abundance of nitrogen-15 using IsoCorrectoR (Heinrich, P. et al. Sci Rep 8, 17910, doi: 10.1038/s41598-018-36293-4 (2018))."}, "SHMT2": {"tested_on": "SHMT2", "test": "Protein level after sulfite treatment (Western blotting), SHMT2", "assay_type": "cell-based", "settings": "following treatment with sulfite", "protocol": "(§1) To test if sulfite changed mitochondrial protein levels, SHMT2 and MTHFD2 protein levels were measured following treatment with sulfite. No changes in protein levels were observed (FIG. 9).\n(§2) Briefly, cells were lysed in NP-40 lysis buffer (50 mM Tris [pH 7.4], 250 mM NaCl, 5 mM EDTA, 50 mM NaF, 1 mM Na3VO4, 1% Nonidet P40) containing complete mini protease inhibitors (Roche). The protein concentration of lysates was quantified using BCA Protein Assay Kit from Life Technologies (#23227). 20 μg of total protein was loaded into SDS-PAGE gel and transferred to a PVDF membrane (Bio-Rad) using standard techniques. The primary antibodies and concentrations used for Western blotting were Vinculin (1:1000, Sigma-Aldrich, #V4505), SUOX (1:1000, Abcam, #ab129094), SHMT2 (1:1000, Sigma-Aldrich, #HPA-020549), IDH1 (1:1000, Proteintech, #12332-1-AP), ME1 (1:1000,), MTHFD2 (1:1000, Abcam, #ab56772), Flag (1:1000, Sigma, #F1804), GPX4 (1:1,000, R&D, #MAB5457), COQ2 (1:1,000, Santa Cruz, sc-517107) and FSP1 (1:1000, Proteintech, #20886-1-AP)."}, "MTHFD2": {"tested_on": "MTHFD2", "test": "Protein level after sulfite treatment (Western blotting), MTHFD2", "assay_type": "cell-based", "settings": "following treatment with sulfite", "protocol": "as §1, §2"}, "HT-1080 cells [4]": {"tested_on": "HT-1080 cells", "test": "Cell death assay (PI flow cytometry), HT-1080 cells incl. knockout lines", "experimental": "Initially, the effect of sulfite on ferroptosis was studied. […] Each group was treated with vehicle alone or with sulfite.\nThe knockout cells were identified by immunoblotting.\nBriefly, cells were seeded in 12-well plates and incubated overnight. After treatment, cells were trypsinized and collected. After washing with cold phosphate-buffered saline (PBS), the cells were stained with 2 μg/mL propidium iodide (PI) in cold PBS. […] All experiments were performed in triplicates."}}, "data": [{"smiles": "O=S([O-])[O-].[Na+].[Na+]", "note": "[sulfite, sodium sulfite]", "values": [{"measurement": "ferroptosis (cell death) in combination with RSL3", "setting": "[1]; RSL3 0.2-2.0 μm plus sulfite 0.5-2 mM depending on cell line", "result": "induced statistically significant ferroptosis"}, {"measurement": "induction of ferroptosis (cell death)", "setting": "[1]; sulfite alone, 0.5-2 mM depending on cell line", "result": "did not show induction of ferroptosis"}, {"measurement": "cell viability when combined with different concentrations of RSL3", "setting": "HT-1080 cells [2]; combined with RSL3, range of concentrations", "result": "reduces cell viability"}, {"measurement": "sensitization effect on cell viability in SHMT2 knock out cells", "setting": "HT-1080 cells [2]; sulfite plus multiple concentrations of RSL3, SHMT2 knock out vs wild type", "result": "much weaker than in wild type cells"}, {"measurement": "relative lipid peroxidation level in combination with RSL3", "setting": "HT-1080 cells [3]", "result": "significantly increased"}, {"measurement": "NADP+/NADPH ratio", "setting": "NADP+/NADPH", "result": "increase"}, {"measurement": "M+1dTTP", "setting": "one-carbon metabolism", "result": "decreased over time"}, {"measurement": "M+2 dTT", "setting": "one-carbon metabolism", "result": "decreased over time"}, {"measurement": "total dTTP", "setting": "one-carbon metabolism", "result": "decreased over time"}, {"measurement": "SHMT2 protein level", "setting": "SHMT2", "result": "No changes"}, {"measurement": "MTHFD2 protein level", "setting": "MTHFD2", "result": "No changes"}, {"measurement": "cell death as observed visually", "setting": "HT-1080 cells [4]; 0.5 mM, cancer cells, presence or absence of RSL3", "result": "resulted in cell death"}, {"measurement": "sensitization of knock out cells to ferroptosis", "setting": "HT-1080 cells [4]; GPX4, FSP1, COQ2 and DHODH knock out cell lines", "result": "can still sensitize"}, {"measurement": "cell death in combination with RSL3 in SHMT2 knock out cells", "setting": "HT-1080 cells [4]; RSL3+Sulfite vs RSL3 alone, SHMT2 knock out cells (FIG. 5J)", "result": "slight increase in cell death"}, {"measurement": "cell death in combination with RSL3 in SUOX knockout cells", "setting": "HT-1080 cells [4]; SUOX knockout HT-1080 cells, vs RSL3 alone", "result": "significantly more cell death"}, {"measurement": "sensitization to RSL3 induced ferroptosis under co-treatment with ferroptosis regulator inhibitors", "setting": "HT-1080 cells [4]; co-treatment with 4CBA, iFSP1 or brequinar (BQR)", "result": "can still sensitize"}, {"measurement": "cell death in combination with RSL3", "setting": "HT-1080 cells [4]; combined with RSL3, compared to RSL3 alone", "result": "significant increased cell death"}, {"measurement": "cell death in combination with FIN56", "setting": "HT-1080 cells [4]; combined with ferroptosis inducer FIN56", "result": "similarly enhanced"}, {"measurement": "cell death in combination with JKE-1674", "setting": "HT-1080 cells [4]; combined with ferroptosis inducer JKE-1674 (JKE)", "result": "similarly enhanced"}, {"measurement": "cell death in combination with ML-162", "setting": "HT-1080 cells [4]; combined with ferroptosis inducer ML-162", "result": "similarly enhanced"}, {"measurement": "cell death in combination with ML-210", "setting": "HT-1080 cells [4]; combined with ferroptosis inducer ML-210", "result": "similarly enhanced"}]}]}
